According to patent US20250186391A1, “ORAL COMPLEMENT FACTOR D INHIBITORS” (BioCryst Pharmaceuticals, Inc., priority 2019, published 2025):

Biological target: Factor D (Homo sapiens (Human), UniProt P00746)
Assay: Factor D esterolytic assay
Type: biochemical
Settings: Z-Lys-SBzl substrate, 100 mM HEPES, 500 mM NaCl, pH 7.5, 10% DMSO; tested a minimum of three times; read-out: Measured Ki (IC50) Value for Compounds: IC50
Method in brief: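 Buffer was 100 mM HEPES, 500 mM NaCl, pH 7.5 with 10% DMSO. Compound and Factor D were combined, then Z-Lys-SBzl (1.29 mM) was added either at once or following room-temperature incubation. Rates came from DTNB colour at 405 nm minus 690 nm over 600 s, with percent inhibition giving IC50 over at least three tests.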

Factor D, sequence (P00746 26-253): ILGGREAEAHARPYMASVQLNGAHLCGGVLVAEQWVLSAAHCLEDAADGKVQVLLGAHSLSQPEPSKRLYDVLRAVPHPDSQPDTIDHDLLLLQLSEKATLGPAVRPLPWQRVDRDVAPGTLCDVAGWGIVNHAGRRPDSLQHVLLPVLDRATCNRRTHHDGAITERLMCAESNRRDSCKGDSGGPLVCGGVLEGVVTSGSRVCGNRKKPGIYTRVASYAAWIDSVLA

IC50 [nM]	Structure (SMILES)
< 1000	NCc1cccc(-c2cc(COc3ccccc3)c3occ(COc4ccccc4CC(=O)O)c3c2)c1 [Compound 92e, 2-(2-((5-(3-(aminomethyl)phenyl)-7-(phenoxymethyl)benzofuran-3-yl)methoxy)phenyl)acetic acid]
< 1000	NCc1cccc(-c2ccc3snc(COc4ccccc4CC(=O)O)c3c2)c1 [Compound 93e, 2-(2-((5-(3-(aminomethyl)phenyl)benzo[d]isothiazol-3-yl)methoxy)phenyl)acetic acid]
> 10000	NCc1cccc(-c2ccc3c(COc4ccccc4CC(=O)O)coc3c2)c1 [Compound 94d, 2-(2-((6-(3-(aminomethyl)phenyl)benzofuran-3-yl)methoxy)phenyl)acetic acid]
> 10000	NCc1cccc(-c2ccc3c(COc4ccccc4CC(=O)O)coc3c2)c1F [Compound 95b, 2-(2-((6-(3-(aminomethyl)-2-fluorophenyl)benzofuran-3-yl)methoxy)phenyl)acetic acid]
> 10000	NCc1cccc(-c2coc3c(COc4ccccc4CC(=O)O)cccc23)c1 [Compound 96e, 2-(2-((3-(3-(aminomethyl)phenyl)benzofuran-7-yl)methoxy)phenyl)acetic acid]
> 10000	NCc1cccc(-c2cccc3occ(COc4ccccc4CC(=O)O)c23)c1 [Compound 97h, 2-(2-((4-(3-(aminomethyl)phenyl)benzofuran-3-yl)methoxy)phenyl)acetic acid]
< 1000	NCc1cccc(-c2cc3cccc(COc4ccccc4CC(=O)O)c3o2)c1 [Compound 98g, 2-(2-((2-(3-(aminomethyl)phenyl)benzofuran-7-yl)methoxy)phenyl)acetic acid]
> 10000	NCc1cccc(-c2cccc3ccc(COc4ccccc4CC(=O)O)cc23)c1 [Compound 99d, 2-(2-((8-(3-(aminomethyl)phenyl)naphthalen-2-yl)methoxy)phenyl)acetic acid]
< 1000	NCc1cccc(-c2ccc3cccc(COc4ccccc4CC(=O)O)c3c2)c1 [Compound 100d, 2-(2-((7-(3-(aminomethyl)phenyl)naphthalen-1-yl)methoxy)phenyl)acetic acid]
< 1000	NCc1cccc(-c2ccc3scc(COc4ccccc4CC(=O)O)c3c2)c1 [Compound 101d, 2-(2-((5-(3-(aminomethyl)phenyl)benzo[b]thiophen-3-yl)methoxy)phenyl)acetic acid]
< 1000	CCOC(=O)Nc1cc(-c2cccc(CN)c2)cc2c(COc3ccccc3CC(=O)O)c(C(=O)O)oc12 [Compound 102c, 5-(3-(aminomethyl)phenyl)-3-((2-(carboxymethyl)phenoxy)methyl)-7-((ethoxycarbonyl)amino)benzofuran-2-carboxylic acid]
< 1000	NCc1cccc(-c2ccc3oc(C(N)=O)c(COc4ccccc4CC(=O)O)c3c2)c1 [Compound 103c, 2-(2-((5-(3-(aminomethyl)phenyl)-2-carbamoylbenzofuran-3-yl)methoxy)phenyl)acetic acid]
< 1000	COc1cccc(CC(=O)O)c1OCc1coc2ccc(-c3cccc(CN)c3)cc12 [Compound 104e, 2-(2-((5-(3-(aminomethyl)phenyl)benzofuran-3-yl)methoxy)-3-methoxyphenyl)acetic acid]
< 1000	Cc1ccc(OCc2coc3ccc(-c4cccc(CN)c4)cc23)c(CC(=O)O)c1 [Compound 105d, 2-(2-((5-(3-(aminomethyl)phenyl)benzofuran-3-yl)methoxy)-5-methylphenyl)acetic acid]
< 1000	COc1ccc(OCc2coc3ccc(-c4cccc(CN)c4)cc23)c(CC(=O)O)c1 [Compound 106c, 2-(2-((5-(3-(aminomethyl)phenyl)benzofuran-3-yl)methoxy)-5-methoxyphenyl)acetic acid]
< 1000	Cc1cccc(CC(=O)O)c1OCc1coc2ccc(-c3cccc(CN)c3)cc12 [Compound 107d, 2-(2-((5-(3-(aminomethyl)phenyl)benzofuran-3-yl)methoxy)-3-methylphenyl)acetic acid]
< 1000	Cc1cccc(OCc2coc3ccc(-c4cccc(CN)c4)cc23)c1CC(=O)O [Compound 108d, 2-(2-((5-(3-(aminomethyl)phenyl)benzofuran-3-yl)methoxy)-6-methylphenyl)acetic acid]
1000 to 10000	COc1cccc(OCc2coc3ccc(-c4cccc(CN)c4)cc23)c1CC(=O)O [Compound 109d, 2-(2-((5-(3-(aminomethyl)phenyl)benzofuran-3-yl)methoxy)-6-methoxyphenyl)acetic acid]

IC50 [nM]	Structure (SMILES)
< 1000	NCc1cccc(-c2ccc3occ(COc4cc(OC(F)(F)F)ccc4CC(=O)O)c3c2)c1 [Compound 110d, 2-(2-((5-(3-(aminomethyl)phenyl)benzofuran-3-yl)methoxy)-4-(trifluoromethoxy)phenyl)acetic acid]
< 1000	NCc1cccc(-c2ccc3occ(COc4cc(C5CC5)ccc4CC(=O)O)c3c2)c1 [Compound 111d, 2-(2-((5-(3-(aminomethyl)phenyl)benzofuran-3-yl)methoxy)-4-cyclopropylphenyl)acetic acid]
< 1000	NCc1cccc(-c2ccc3oc(CO)c(COc4ccccc4CC(=O)O)c3c2)c1 [Compound 112c, 2-(2-((5-(3-(aminomethyl)phenyl)-2-(hydroxymethyl)benzofuran-3-yl)methoxy)phenyl)acetic acid]
< 1000	NCc1cccc(-c2cc(C(F)(F)F)c3occ(COc4ccccc4CC(=O)O)c3c2)c1 [Compound 113g, 2-(2-((5-(3-(aminomethyl)phenyl)-7-(trifluoromethyl)benzofuran-3-yl)methoxy)phenyl)acetic acid]
1000 to 10000	NCc1cccc(-c2ccc3occ(COc4c(CC(=O)O)cccc4C(N)=O)c3c2)c1 [Compound 114i, 2-(2-((5-(3-(aminomethyl)phenyl)benzofuran-3-yl)methoxy)-3-carbamoylphenyl)acetic acid]
< 1000	N#Cc1cccc(CC(=O)O)c1OCc1coc2ccc(-c3cccc(CN)c3)cc12 [Compound 115c, 2-(2-((5-(3-(aminomethyl)phenyl)benzofuran-3-yl)methoxy)-3-cyanophenyl)acetic acid]
< 1000	CN1CCN(Cc2ccc(-c3cc(-c4cccc(CN)c4)cc4c(COc5ccccc5CC(=O)O)coc34)cc2)CC1 [Compound 116d, 2-(2-((5-(3-(aminomethyl)phenyl)-7-(4-((4-methylpiperazin-1-yl)methyl)phenyl)benzofuran-3-yl)methoxy)phenyl)acetic acid]
< 1000	Cn1nc(COc2ccccc2CC(=O)O)c2cc(-c3cccc(CN)c3)ccc21 [Compound 117d, 2-(2-((5-(3-(aminomethyl)phenyl)-1-methyl-1H-indazol-3-yl)methoxy)phenyl)acetic acid]
< 1000	NCc1cccc(-c2ccc3occ(COc4cc(C(F)(F)F)ccc4CC(=O)O)c3c2)c1 [Compound 118d, 2-(2-((5-(3-(aminomethyl)phenyl)benzofuran-3-yl)methoxy)-4-(trifluoromethyl)phenyl)acetic acid]
< 1000	CC(Oc1ccccc1CC(=O)O)c1coc2ccc(-c3cccc(CN)c3)cc12 (stereo not shown) [Compound 119d, 2-(2-(1-(5-(3-(aminomethyl)phenyl)benzofuran-3-yl)ethoxy)phenyl)acetic acid]
< 1000	NCc1cccc(-c2cc(C3CC3)c3occ(COc4ccccc4CC(=O)O)c3c2)c1 [Compound 120c, 2-(2-((5-(3-(aminomethyl)phenyl)-7-cyclopropylbenzofuran-3-yl)methoxy)phenyl)acetic acid]
< 1000	NCc1cccc(-c2cc(CN3CCNCC3)c3occ(COc4ccccc4CC(=O)O)c3c2)c1 [Compound 122b, 2-(2-((5-(3-(aminomethyl)phenyl)-7-(piperazin-1-ylmethyl)benzofuran-3-yl)methoxy)phenyl)acetic acid]
< 1000	NCc1cccc(-c2cc3c(COc4ccccc4CC(=O)O)coc3c3ccoc23)c1 [Compound 123g, 2-(2-((5-(3-(aminomethyl)phenyl)benzo[1,2-b:3,4-b′]difuran-3-yl)methoxy)phenyl)acetic acid]
< 1000	Cc1oc2ccc(-c3cccc(CN)c3)cc2c1COc1ccccc1CC(=O)O [Compound 124f, 2-(2-((5-(3-(aminomethyl)phenyl)-2-methylbenzofuran-3-yl)methoxy)phenyl)acetic acid]
< 1000	CC(O)c1oc2ccc(-c3cccc(CN)c3)cc2c1COc1ccccc1CC(=O)O (stereo not shown) [Compound 125d, 2-(2-((5-(3-(aminomethyl)phenyl)-2-(1-hydroxyethyl)benzofuran-3-yl)methoxy)phenyl)acetic acid]
< 1000	NCc1cccc(-c2ccc3occ(COc4cccc(F)c4CC(=O)O)c3c2)c1 [Compound 126f, 2-(2-((5-(3-(aminomethyl)phenyl)benzofuran-3-yl)methoxy)-6-fluorophenyl)acetic acid]
< 1000	NCc1cccc(-c2cc(Cl)c3occ(COc4ccccc4CC(=O)O)c3c2)c1 [Compound 127f, 2-(2-((5-(3-(aminomethyl)phenyl)-7-chlorobenzofuran-3-yl)methoxy)phenyl)acetic acid]
< 1000	CCn1cc(-c2cc(-c3cccc(CN)c3)cc3c(COc4ccccc4CC(=O)O)coc23)cn1 [Compound 128c, 2-(2-((5-(3-(aminomethyl)phenyl)-7-(1-ethyl-1H-pyrazol-4-yl)benzofuran-3-yl)methoxy)phenyl)acetic acid]

Structure (SMILES)	IC50 [nM]
CC(C)(C)OC(=O)N1CCN(Cc2cc(-c3cccc(CN)c3)cc3c(COc4ccccc4CC(=O)O)coc23)CC1 [Compound 121f, 2-(2-((5-(3-(aminomethyl)phenyl)-7-((4-(tert-butoxycarbonyl)piperazin-1-yl)methyl)benzofuran-3-yl)methoxy)phenyl)acetic acid]	< 1000
